Measurements: patent publication US20210054028A1, “BACTERIAL SIDEROPHORE GRAMIBACTIN” (Leibniz-Institut für Naturstoff-Forschung und …, priority 2017, published 2021)
“Also recorded” adds a separate entry of the source. *1 amine or outer side, *2 acyl side, *3 side chain or, on linkers, in order; H or OH if unused. Where a SMILES comes first, the peptide text is derived from it. Bridges are numbered along the chain shown (N, C = ends). [ ]: non-standard residue; d: D form. The star is where a group is joined. dAsp(3R-OH) = N[C@@H](C(=O)O)[C@@H](O)C(=O)O; X1 = O=NN(O)CCC[C@@H](N[*:1])C(=O)[*:2]; d(aThr) = C[C@@H](O)[C@@H](N)C(=O)O; Octanoyl = CCCCCCCC(=O)*

Assays:
[1] = test system: corn plants; assay: Chlorophyll content determination in hydroponically grown corn plants; assay type: in vivo, Zea mays L. ssp. saccharata; details: 50 μM in nutrient solution; 21 d hydroponic growth; 3rd leaf
Procedure: Corn plants were grown in nutrient solutions deficient in iron, or supplementing either Fe-EDTA (positive control) or Fe-gramibactin. Solvent and metal-free chelators were used as negative controls. As readout for iron uptake we measured the chlorophyll content of youngest leaves, since chlorophyll biosynthesis is strongly dependent on iron availability (11).
Seeds from maize (Zea mays L. ssp. saccharata) were commercially acquired (Kiepenkerl) and surface sterilized in 4.5% (v/v) sodium hypochlorite for 10 minutes and subsequently rinsed 5 times with 50 mL sterile distilled water. Seeds were germinated in rolled filter papers soaked with sat. CaSO4 solution for 3 d in at 30° C. in the dark. […]
Plants were grown hydroponically for 21 days using the above described adjusted nutrient solution. […] The last developed leaf of each plant (3rd leaf) was removed, and fresh weight was determined. […] The residue was dissolved in 1 mL methanol and 1:10 or 1:20 dilutions with methanol were analysed spectrophotometrically using a Shimadzu UV-1800 spectrophotometer. Samples were measured at 25° C. using discardable plastic cuvettes (d=1 cm). […] Chlorophyll contents were calculated using the equations developed by Wellburn.

[2] = Potentiometric and spectrophotometric titrations of the gramibactin/Fe3+ system with EDTA as competitive chelating agent; assay type: physicochemical; details: I=0.1 M KCl
Description: (§1) To evaluate the actual strength of the siderophore, we conducted potentiometric and spectrophotometric titrations to evaluate the acid/base behavior of gramibactin and to determine the complex formation constant of the iron complex (FIG. 2C). […] It thus appeared conceivable that the rhizosphere bacteria excrete the metal chelator to provide the host plant with iron.
(§2) Potentiometric ligand competition measurements and calculations have been performed as reported (11) at l=0.1 M in KCl(aq) and at T=25.0±0.1° C., using a Mettler Toledo DL50 apparatus, equipped with a Schott Instruments N6180 combined glass electrode, controlled by LabX light v1.05 software. The titrand solutions consisted in gramibactin (from 0.7 mm to 1 mm), EDTA (as disodium salt) and Fe^3+ (as FeCl3) in different gramibactin:Fe^3+:EDTA ratios, with slight known excess of HCl.
(§3) This can be explained by a buffering effect of the two N-nitroso-hydroxylamine moieties. […]
(§4) Titrations were carried out at 0.1 m in KCl(aq) and T=25.0±0.1° C. in a glass cuvette (d=10.00 mm) placed in the spectrometer equipped with a thermostated cell holder. The pH was read out by using a inoLab pH 7110 with a combination electrode (SI analytics, ScienceLine Type N 6000 A). […] UV/Vis-spectra were recorded after every addition of KOH(aq) followed by magnetic stirring (FIG. 12).

[3] = Acid/base titration and speciation of gramibactin; assay type: physicochemical; details: physiological pH; I=0.1 M KCl; 25 °C
Description: as §1, §2, §3, §4

[4] = test system: extracted proteins from corn roots; assay: In vitro NO release assay with 2,3-diaminonaphthalene probe; assay type: biochemical, Zea mays L. ssp. saccharata; details: 2 mM test substance, 1.2 mM H2O2, 0.2 mM DAN, root proteins, 20 min, pH 6
Procedure: To probe the proposed enzymatic NO release in vitro, we extracted soluble proteins from ground root tissue of hydroponically grown plants into phosphate buffer. To monitor the liberation of NO in the in vitro enzyme assay, we used 2,3-diaminonaphthalene (DAN) as a reporter. Nitric oxide reacts with this chemical probe to form the 2,3-napthotriazole, and its strong fluorescence can be readily measured using a microplate reader. Extracted root proteins were incubated with the probe, hydrogen peroxide and either Fe-gramibactin or the iron-free ligand, using heat-inactivated proteins as negative control. […] Thus, gramibactin represents a novel NO donor.
One-week-old plants were harvested and the roots were rinsed with distilled water. After separating the roots from the shoot, the root tissue was frozen using liquid nitrogen and grounded with mortar and pestle. The plant material was then extracted using 1 mL 66 mm NaH2PO4 buffer (pH 6). The extract was centrifuged to remove remaining plant material, and 20 μL of the supernatant were used for in vitro assays. […] Fluorescence was measured using a Varioskan LUX (Thermo Scientific) microplate reader (IEx.=375 nm, IEm.=415 nm). Fluorescence values were normalized to the sample with the highest fluorescence. Every assay was performed in triplicates and every replicate was measured three times, and the mean of all these replicates was plotted. […]

[5] = test system: corn roots; assay: In planta NO release assay with DAF-2DA, fluorescence microscopy; assay type: in vivo, Zea mays L. ssp. saccharata; details: 100 μM; 1.5-2 h after loading with 10 μM DAF-2DA
Procedure: To verify the postulated NO release in planta we treated fresh corn seedlings with diaminofluoresceine-2-diacetate (DAF-2DA), a cell-permeable probe that captures NO with formation of a highly fluorescent triazole. After loading maize roots with the chemical probe they were incubated with negative controls, gramibactin, or Fe-gramibactin, then cut and inspected by fluorescence microscopy. […] Thus, NO is in fact liberated from gramibactin in the plant tissue. A weak signal was also detectable in the root treated with the Fe-gramibactin complex. This finding is important as it confirms that iron is removed from gramibactin in vivo, thus providing free ligands that can subsequently release nitric oxide. Finally, fluorescence microscopy also allowed localizing NO, which is apparently released into the intracellular space. This observation is plausible as peroxidases, which are required for NO release, are typically located in the cell membrane.
Young seedlings (2-3 days old) were placed in a vial containing 4 mL standard nutrient solution (see above) with 10 μm 4,5-diaminofluorescein diacetate and incubated at room temperature for 30 min. Seedlings were then removed, and the root was rinsed with deionized water before placing them in nutrient solution containing 100 μm gramibactin, 100 μm Fe-gramibactin or no additive (control). […]

log □ (complex formation constant of the iron complex) ([2]; disodium EDTA as competitive chelating agent, T=25.0±0.1 °C) | protons released upon metal complexation ([2]; potentiometric titration, gramibactin:Fe3+ 1:1, 25 °C) | Structure (SMILES) | higher total chlorophyll content versus iron-free cultured plants [1] [%] | protonation state of graminine residues (speciation diagram) [3] | fluorescence of 2,3-naphthotriazole (NO release) [4] | DAF-2T fluorescence signal in root cross sections (NO release in planta) [5]
 |  | O=C([O-])CN(CCN(CC(=O)[O-])CC(=O)[O-])CC(=O)[O-].[Fe+3] [Fe-EDTA] | 50 |  |  | 
27.6±0.1 | four | CCCCCCCC(=O)N[C@@H](C(=O)N[C@@H]1C(=O)N[C@H]([C@@H](C)O)C(=O)N[C@H](CCCN(O)N=O)C(=O)NCC(=O)N[C@H](CCCN(O)N=O)C(=O)O[C@@H]1C)[C@@H](O)C(=O)O [gramibactin] (Octanoyl-[dAsp(3R-OH)]T[d(aThr)][X1]G[X1]; ester 2-C) |  | both graminine residues are deprotonated at physiological pH | drastically increased fluorescence; also recorded: liberates NO | strong signal; also recorded: liberates NO
